Measured values as given in patent US20240131155A1, “T CELLS FOR USE IN THERAPY” (Erasmus University Medical Center Rotterdam, priority 2021, published 2024).
Like-named read-outs stand apart in the source and are kept apart here. Peptide text beside a SMILES is read from it.

Tests used:
CD8+ T cells = assay: Enrichment of epitope-specific CD8 T cells from healthy donors, epitope-specific IFNg production (ELISA); format: cell-based, human; conditions: positive co-cultures / co-cultures tested
Protocol: Enrichment of epitope-specific CD8 T cells was performed according to the protocol described by Butler et al., Clin Cancer Res.;13(6):1857-1867 (2007), doi:10.1158/1078-0432, but included the following amendments. CD8+ T lymphocytes were collected from PBMCs by magnetic-activated cell sorting (MACS) according to the CD8 isolation kit (Miltenyi Biotec). CD8+ T cells with >95% purity were subsequently cultured in T cell medium supplemented with IL-2 (36 IU/mL; but no gentamycin) for 1 day, after which expansion cycles started. K562ABC cells (kindly provided by prof. Bruce Levine, University of Pennsylvania, PA) were loaded with 10 μg/ml ROPN1 and/or ROPN1B peptide and incubated for 5 h at RT in serum-free medium, after which cells were washed and fixed with 0,1% paraformaldehyde. After washing, K562ABC cells were suspended at 0.1×10^6/mL and co-cultured with T cells in a 1:20 ratio. IL-2 (36 IU/mL) and IL-15 ([…]) were added at days 1 and 3 days after start of co-culture, and after 6 days, T cells were counted, suspended at 2×10^6/mL and rested for 1 day, after which the next cycle commenced (this schedule continued up to 4 or 5 cycles). Following 4 and 5 cycles, T cells were stained with pMHC multimers (HLA*0201/MLN, Immudex, Copenhagen, Denmark). pMHC-PE were pre-incubated at RT for 10 min followed by incubation with 7AAD, anti-CD3-FITC and anti-CD8-APC for 20 min. Cells were fixed with 1% paraformaldehyde and TCR expression was measured with flow cytometry and analyzed using FlowJoX software. FIG. 4A schematically depicts the procedure to enrich epitope-specific T cells, and obtainthe corresponding TCR genes.
Enriched T cells were tested for ROPN1 and/or ROPN1B epitope-specific IFNY production. To this end, T2 cells (4×10^6/mL) were loaded with peptide (20 ng/mL) for 30 min. T cells (2×10^5) were cultured in a 1:1 ratio with T2 cells in a round bottom 96-wells plate, and the next day supernatant was collected and IFN-γ production was measured with an Enzyme-linked immunosorbent assay (ELISA, Invitrogen) according to manufacturer's protocol (FIG. 4B). T2 cells without peptide were included as a negative control; and staphylococcal enterotoxin B (0.1 μg, Sigma) was used as a positive control.
Enrichment of epitope-specific T cells was performed by co-culturing naïve T cells with CD11c-positive cells that were loaded with peptide. PBMCs were passed through a cell strainer (70 μm) and used for the isolation of naïve T cells and CD11c cells. To isolate CD11c-positive cells (typically dendritic cells, DC), PBMCs were stained for 10 mM at 4° C. with Fc block (10 μL/10^7 PBMCs, BD Pharmingen, Vianen, the Netherlands), after which cells were stained with CD11c-PE antibody (10 μL/10^7 PBMCs, BD Pharmingen) for 30 mM at 4° C., washed, and incubated with PE beads (10 μL/10^7 PBMCs, Miltenyi Biotech, Bergisch Gladbach, Germany) for another […] at 4° C. After washing, cells were dissolved in magnetic-activated cell sorting (MACS) buffer and passed through a MACS LS column (Miltenyi Biotec) to positively select CD11c cells. After selection, CD11c cells were irradiated with 30 Gy, and cultured overnight in a 24-wells plate (1×10^6/mL) in RPMI medium supplemented with 1% human serum (Sanquin), 1% antibiotics, […] L-glutamine, a DC maturation cocktail (a mixture of GM-CSF (10 ng/mL, ImmunoTools, Germany), IL-4 (10 ng/mL, ImmunoTools), LPS (100 ng/mL, Invitrogen, Goteborg, Sweden) and IFNY (10 ng/mL, Preprotech, London, United Kingdom)), as well as peptide (10 pg/mL). Naïve T cells were isolated with use of the Naïve T Cell isolation kit (Miltenyi Biotec) according to the manufacturer's protocol, and suspended in RPMI medium supplemented with 5% human serum (Sanquin), 1% antibiotics, […] L-glutamine and IL-7 (5 ng/mL, BD Pharmingen). The run-through of the naïve T cell selection was frozen down and used for re-stimulation of epitope-specific T cells. […]

[1] = test system: ROPN1 or ROPN1B over-expressing MDA-MB231 tumor cells; assay: IFNg production of TCR T cells co-cultured with ROPN1 or ROPN1B over-expressing tumor cells (endogenously processed epitope); format: cell-based, human; conditions: Table 4; responding TCRs / TCRs tested, T cells transduced with TCR specific for the epitope
Protocol: In a first series of in vitro tests, TCR-transduced T cells (6×10^4/well in a 96-well plate) were co-cultured with ROPN1 or ROPN1B over-expressing MDA-MB231 tumor cells (2×10^4/well) in a total volume of 200 μl of T cell medium for 24 h at 37° C. The ROPN1 or ROPN1B over-expressing tumor cells were generated as described under ‘generation and culture of cell lines and T cells’ (see above), and tumor cells were pre-treated 48 h with IFN-Y before co-culture with T cells. […] T cells that fulfilled these criteria (examples in FIG. 10A) were assessed for their sensitivity towards their cognate epitope. […] EC50 values were calculated using GraphPad Prism 5 software.

HLA-A2 = target: T1, HLA-A2 (Homo sapiens, UniProt P04439, D140Y/D185E/D98H/E176V/E277Q/G131W/G231S/I119V/I121R/I166T/I218V/L300P/L318F/N151K/N90K/P208A/P217A/Q86G/Q94H/R138H/R169H/T345S); assay: HLA-A2 stabilization assay using T2 cells; format: binding
T1 construct: The HLA-A2 stabilization assay was performed using T2 cells; endogenous in cells; host or cells: T2 cells (LCLxT lymphoblastoid hybrid cell line 0.1743CEM.T2)

[2] = Table 2 (Example 1), EC50 of peptide titration on T2 cells, read-out: Affinity for HLA A2:01
[3] = Table 4 (Examples 1 and 2), EC50 of peptide titration on T2 cells, read-out: Affinity for HLA.A2.01
[4] = Table 2 (Example 1), healthy donor T cells

EC50 (HLA-A2; [2]) [µM] | EC50 (HLA-A2; [3]) [µM] | EC50 (HLA-A2; Example 1, top-ranked epitopes, read-out: EC50 (HLA-A2 binding)) [µM] | SMILES | T cell responses observed (IFNg) against epitope (CD8+ T cells; Table 4) | T cell responses observed (IFNg) against endogenously presented epitope [1] | T cell responses observed (IFNg) against epitope (CD8+ T cells; [4])
11.4 | 10.5 |  | CSCC[C@H](NC(=O)[C@H](CCC(N)=O)NC(=O)[C@H](C)N)C(=O)N[C@@H](Cc1c[nH]c2ccccc12)C(=O)N[C@@H](CCCCN)C(=O)N[C@H](C(=O)N[C@H](C(=O)N[C@@H](CC(N)=O)C(=O)N[C@@H](CC(C)C)C(=O)O)C(C)C)C(C)C (H-AQMWKVVNL-OH; N-terminus and C-terminus assumed) | 2/2 co-cultures | 0/1 responses | 
 | 21.1 |  | CC[C@H](C)[C@H](NC(=O)[C@H](Cc1ccc(O)cc1)NC(=O)[C@@H](NC(=O)[C@H](Cc1ccc(O)cc1)NC(=O)[C@H](CC(C)C)NC(=O)[C@@H](N)Cc1ccccc1)[C@@H](C)O)C(=O)N[C@@H](C)C(=O)N[C@@H](CCC(=O)O)C(=O)N[C@H](C(=O)O)C(C)C (H-FLYTYIAEV-OH; N-terminus and C-terminus assumed) | 2/2 co-cultures | 1/1 responses | 
10.9 | 8.11 |  | CC[C@H](C)[C@H](NC(=O)[C@H](Cc1ccc(O)cc1)NC(=O)[C@@H](NC(=O)[C@H](Cc1ccc(O)cc1)NC(=O)[C@H](CC(C)C)NC(=O)[C@@H](N)Cc1ccccc1)[C@@H](C)O)C(=O)N[C@@H](C)C(=O)N[C@@H](CCCCN)C(=O)N[C@H](C(=O)O)C(C)C (H-FLYTYIAKV-OH; N-terminus and C-terminus assumed) | 1/4 co-cultures | 1/1 responses | 1/4 co-cultures
6.56 | 4.82 | 6.6 | CC[C@H](C)[C@H](NC(=O)[C@H](Cc1ccc(O)cc1)NC(=O)[C@H](CC(N)=O)NC(=O)[C@H](CC(C)C)NC(=O)[C@@H](N)CCSC)C(=O)N[C@@H](CCC(=O)O)C(=O)N[C@@H](CCC(N)=O)C(=O)N[C@@H](CCC(=O)O)C(=O)N[C@H](C(=O)O)C(C)C (H-MLNYIEQEV-OH; N-terminus and C-terminus assumed) | 1/3 co-cultures | 0/2 responses | 1/3 co-cultures
